According to patent US11613542B2, “Sulfonylureas and sulfonylthioureas as NLRP3 inhibitors” (Inflazome Limited, priority 2017, dated 2023):
Structures can show the parent of a compound that is named as a salt.

Target: NLRP3 (Homo sapiens, UniProt Q96P20)
Assay: THP-1 cells pyroptosis assay
Format: cell-based
Parameters: Seed THP-1 cells (25,000 cells/well) containing 1.0 μg/ml LPS; host or cells: THP-1 cells, LPS-primed, nigericin-stimulated
Conditions: THP-1 cells, 1.0 μg/ml LPS, compound 3 hrs, nigericin 5 μM 1 hr, resazurin readout; read-out: THP IC50
From the text: NLRP and Pyroptosis It is well established that the activation of NLRP3 leads to cell pyroptosis and this feature plays an important part in the manifestation of clinical disease (Yan-gang Liu et al., Cell Death &Disease, 2017, 8(2), e2579; Alexander Wree et al., Hepatology, 2014, 59(3), 898-910; Alex Baldwin et al., Journal of Medicinal Chemistry, 2016, 59(5), 1691-171; Ema Ozaki et al., Journal of Inflammation Research, 2015, 8, 15-27; Zhen Xie & Gang Zhao, Neuroimmunology Neuroinflammation, 2014, 1(2), 60-65; Mattia Cocco et al., Journal of Medicinal Chemistry, 2014, 57(24), 10366-10382; T. Satoh et al., Cell Death &Disease, 2013, 4, e644). Therefore, it is anticipated that inhibitors of NLRP3 will block pyroptosis, as well as the release of pro-inflammatory cytokines (e.g. […]) from the cell. THP-1 Cells: Culture and Preparation THP-1 cells (ATCC #TIB-202) were grown in RPMI containing L-glutamine (Gibco #11835) supplemented with imM sodium pyruvate (Sigma #S8636) and penicillin (100 units/ml)/streptomycin (0.1 mg/ml) (Sigma #P4333) in 10% Fetal Bovine Serum (FBS) (Sigma #Fo804). The cells were routinely passaged and grown to confluency (˜10^6 cells/ml). On the day of the experiment, THP-1 cells were harvested and resuspended into RPMI medium (without FBS). The cells were then counted and viability (>90%) checked by Trypan blue (Sigma #T8154). Appropriate dilutions were made to give a concentration of 625,000 cells/ml. To this diluted cell solution was added LPS (Sigma #L4524) to give a […] Final Assay Concentration (FAC). 40 μl of the final preparation was aliquoted into each well of a 96-well plate. The plate thus prepared was used for compound screening. THP-1 Cells Pyroptosis Assay The following method step-by-step assay was followed for compound screening. • 1. Seed THP-1 cells (25,000 cells/well) containing 1.0 μg/ml LPS in 40 μl of RPMI medium (without FBS) in 96-well, black walled, clear bottom cell culture plates coated with poly-D-lysine (VWR #734-0317) • 2. Add […] compound (8 points half-log dilution, with 10 μM top dose) or vehicle (DMSO 0.1% FAC) to the appropriate wells • 3. […] Add 5 μl nigericin (Sigma #N7143) (FAC 5 μM) to all wells • 5. […] At the end of the incubation period, spin plates at 300 xg for 3 mins and remove supernatant • 7. Then add 50 μl of resazurin (Sigma #R7017) (FAC 100μ M resazurin in RPMI medium without FBS) and incubate plates for a further 1-2 hrs at 37° C. and 5% CO2 • 8. Plates were read in an Envision reader at Ex 560 nm and Em 590 nm • 9. IC50 data is fitted to a non-linear regression equation (log inhibitor vs response-variable slope 4-parameters) [table]

NLRP3, sequence (Q96P20 whole entry): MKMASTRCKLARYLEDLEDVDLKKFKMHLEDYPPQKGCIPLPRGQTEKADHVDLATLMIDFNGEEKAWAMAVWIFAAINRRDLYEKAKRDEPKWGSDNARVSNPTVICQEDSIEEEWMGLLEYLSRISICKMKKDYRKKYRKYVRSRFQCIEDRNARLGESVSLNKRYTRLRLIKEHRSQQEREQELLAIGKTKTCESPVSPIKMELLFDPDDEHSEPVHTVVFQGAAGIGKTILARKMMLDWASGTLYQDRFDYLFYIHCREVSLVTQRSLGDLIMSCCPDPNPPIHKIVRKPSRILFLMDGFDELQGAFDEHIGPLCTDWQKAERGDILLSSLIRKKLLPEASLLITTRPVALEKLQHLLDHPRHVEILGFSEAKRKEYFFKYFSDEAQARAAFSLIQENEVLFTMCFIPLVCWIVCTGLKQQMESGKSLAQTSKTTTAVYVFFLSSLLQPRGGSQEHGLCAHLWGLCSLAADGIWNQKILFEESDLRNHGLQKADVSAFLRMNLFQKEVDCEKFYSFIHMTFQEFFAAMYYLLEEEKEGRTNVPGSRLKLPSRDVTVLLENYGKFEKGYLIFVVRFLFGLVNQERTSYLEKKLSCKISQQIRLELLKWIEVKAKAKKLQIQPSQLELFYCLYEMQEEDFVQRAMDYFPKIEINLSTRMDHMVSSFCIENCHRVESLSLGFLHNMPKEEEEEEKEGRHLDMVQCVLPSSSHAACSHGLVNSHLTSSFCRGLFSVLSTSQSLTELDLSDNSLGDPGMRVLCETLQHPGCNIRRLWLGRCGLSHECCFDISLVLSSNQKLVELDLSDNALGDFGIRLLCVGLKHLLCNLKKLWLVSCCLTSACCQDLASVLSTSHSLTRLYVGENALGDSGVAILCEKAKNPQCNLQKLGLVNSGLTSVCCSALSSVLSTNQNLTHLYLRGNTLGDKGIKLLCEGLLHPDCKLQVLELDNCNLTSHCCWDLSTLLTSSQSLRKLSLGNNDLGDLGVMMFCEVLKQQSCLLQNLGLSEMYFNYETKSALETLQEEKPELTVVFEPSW

| IC50 [µM] | Structure (SMILES) |
| --- | --- |
| < 2.56 | CN(C)CCn1cc(S(=O)(=O)NC(=O)Nc2c3c(cc4c2CCC4)CCC3)cn1 [Example 182, 1-(2-(Dimethylamino)ethyl)-N-((1,2,3,5,6,7-hexahydro-s-indacen-4-yl)carbamoyl)-1H-pyrazole-4-sulfonamide] |
| < 0.64 | CC(C)c1cc(F)cc(C(C)C)c1NC(=O)NS(=O)(=O)c1cc(CN(C)CCO)n(C)n1 [Example 123, N-((4-Fluoro-2,6-diisopropylphenyl)carbamoyl)-5-(((2-hydroxyethyl)(methyl)amino)methyl)-1-methyl-1H-pyrazole-3-sulfonamide] |
| < 0.16 | CC(c1cc(S(=O)(=O)NC(=O)Nc2c3c(cc4c2CCC4)CCC3)nn1C)N1CCC1 (single isomer, unassigned) [Example 46, 5-(1-(Azetidin-1-yl)ethyl)-N-((1,2,3,5,6,7-hexahydro-s-indacen-4-yl)carbamoyl)-1-methyl-1H-pyrazole-3-sulfonamide, sodium salt] |
| < 2.56 | CN1CCC(n2ccc(S(=O)(=O)NC(=O)Nc3c4c(cc5c3CCC5)CCC4)n2)CC1 [Example 31, N-((1,2,3,5,6,7-Hexahydro-s-indacen-4-yl)carbamoyl)-1-(1-methylpiperidin-4-yl)-1H-pyrazole-3-sulfonamide] |
| < 0.64 | CCN(CC)C(=O)c1cc(S(=O)(=O)NC(=O)Nc2c(C(C)C)cc(F)cc2C(C)C)nn1C [Example 148, N,N-Diethyl-3-(N-((4-fluoro-2,6-diisopropylphenyl)carbamoyl)sulfamoyl)-1-methyl-1H-pyrazole-5-carboxamide, sodium salt] |
| < 2.56 | CN(C)CCCn1ccc(S(=O)(=O)NC(=O)Nc2c3c(cc4c2CCC4)CCC3)n1 [Example 32, 1-(3-(Dimethylamino)propyl)-N-((1,2,3,5,6,7-hexahydro-s-indacen-4-yl)carbamoyl)-1H-pyrazole-3-sulfonamide] |
| < 2.56 | Cn1nc(S(=O)(=O)NC(=O)Nc2c3c(cc4c2CCC4)CCC3)cc1CN1CCOCC1 [Example 128, N-((1,2,3,5,6,7-Hexahydro-s-indacen-4-yl)carbamoyl)-1-methyl-5-(morpholinomethyl)-1H-pyrazole-3-sulfonamide] |
| < 2.56 | COCCN(C)Cc1cc(S(=O)(=O)NC(=O)Nc2c(C(C)C)cc(F)cc2C(C)C)nn1C [Example 125, N-((4-Fluoro-2,6-diisopropylphenyl)carbamoyl)-5-(((2-methoxyethyl)(methyl)amino)methyl)-1-methyl-1H-pyrazole-3-sulfonamide, sodium salt] |
| < 0.64 | CC(C)c1cc(F)cc(C(C)C)c1NC(=O)NS(=O)(=O)c1cc(C(=O)N2CCC2)n(C(C)C)n1 [Example 130, 5-(azetidine-1-carbonyl)-N-((4-fluoro-2,6-diisopropylphenyl)carbamoyl)-1-isopropyl-1H-pyrazole-3-sulfonamide] |
| < 2.56 | CC(C)c1cc(Cl)cc(C(C)C)c1NC(=O)NS(=O)(=O)c1ccn(C(C)(C)CN(C)C)n1 [Example 200, N-((4-Chloro-2,6-diisopropylphenyl)carbamoyl)-1-(1-(dimethylamino)-2-methylpropan-2-yl)-1H-pyrazole-3-sulfonamide] |
| < 2.56 | CC(C)c1cccc(C(C)C)c1NC(=O)NS(=O)(=O)c1cc(C(=O)N2CCCC2)n(C)n1 [Example 163, N-((2,6-Diisopropylphenyl)carbamoyl)-1-methyl-5-(pyrrolidine-1-carbonyl)-1H-pyrazole-3-sulfonamide] |
| < 10 | CC(C)c1cccc(C(C)C)c1NC(=O)NS(=O)(=O)c1cc(C(=O)N(C)CC#N)n(C)n1 [Example 140, N-(Cyanomethyl)-3-(N-((2,6-diisopropylphenyl)carbamoyl)sulfamoyl)-N,1-dimethyl-1H-pyrazole-5-carboxamide] |
| < 2.56 | O=C(Nc1c2c(cc3c1CCC3)CCC2)NS(=O)(=O)c1ccn(-c2nccs2)n1 [Example 120, N-((1,2,3,5,6,7-Hexahydro-s-indacen-4-yl)carbamoyl)-1-(thiazol-2-yl)-1H-pyrazole-3-sulfonamide, sodium salt] |
| < 2.56 | CC(C)c1ccc(-c2cnn(C)c2)cc1NC(=O)NS(=O)(=O)c1cc(C(=O)N(C)C)n(C)n1 [Example 136, 3-(N-((2-Isopropyl-5-(1-methyl-1H-pyrazol-4-yl)phenyl)carbamoyl)sulfamoyl)-N,N,1-trimethyl-1H-pyrazole-5-carboxamide, sodium salt] |
| < 2.56 | CCN(CC)C(=O)c1cc(S(=O)(=O)NC(=O)Nc2c(C(C)C)cccc2C(C)C)nn1C [Example 157, 3-(N-((2,6-Diisopropylphenyl)carbamoyl)sulfamoyl)-N,N-diethyl-1-methyl-1H-pyrazole-5-carboxamide] |
| < 10 | CN1CCn2nc(S(=O)(=O)NC(=O)Nc3c4c(cc5c3CCC5)CCC4)cc2C1=O [Example 5, N-((1,2,3,5,6,7-Hexahydro-s-indacen-4-yl)carbamoyl)-5-methyl-4-oxo-4,5,6,7-tetrahydropyrazolo[1,5-a]pyrazine-2-sulfonamide, sodium salt] |
| < 2.56 | O=C(Nc1c2c(cc3c1CCC3)CCC2)NS(=O)(=O)c1ccn(-c2cccnc2)n1 [Example 121, N-((1,2,3,5,6,7-Hexahydro-s-indacen-4-yl)carbamoyl)-1-(pyridin-3-yl)-1H-pyrazole-3-sulfonamide] |
| < 10 | CC(C)NC(=O)c1cc(S(=O)(=O)NC(=O)Nc2c(C(C)C)cccc2C(C)C)nn1C [Example 138, 3-(N-((2,6-Diisopropylphenyl)carbamoyl)sulfamoyl)-N-isopropyl-1-methyl-1H-pyrazole-5-carboxamide] |
| < 2.56 | Cn1nc(S(=O)(=O)NC(=O)Nc2c3c(cc4c2CCC4)CCC3)cc1C(=O)N1CC(F)C1 [Example 161, 5-(3-Fluoroazetidine-1-carbonyl)-N-((1,2,3,5,6,7-hexahydro-s-indacen-4-yl)carbamoyl)-1-methyl-1H-pyrazole-3-sulfonamide, partial ammonium salt] |
| < 2.56 | CC(C)c1cc(Cl)cc(C(C)C)c1NC(=O)NS(=O)(=O)c1cc(CN2CCOCC2)n(C)n1 [Example 127, N-((4-Chloro-2,6-diisopropylphenyl)carbamoyl)-1-methyl-5-(morpholinomethyl)-1H-pyrazole-3-sulfonamide, sodium salt] |
| < 0.16 | CC(c1cc(S(=O)(=O)NC(=O)Nc2c3c(cc4c2CCC4)CCC3)nn1C)N1CCC1 (single isomer, unassigned) [Example 47, 5-(1-(Azetidin-1-yl)ethyl)-N-((1,2,3,5,6,7-hexahydro-s-indacen-4-yl)carbamoyl)-1-methyl-1H-pyrazole-3-sulfonamide, sodium salt] |
| < 2.56 | Cn1nc(S(=O)(=O)NC(=O)Nc2c3c(cc4c2CCC4)CCC3)cc1C(=O)N1CCCC1 [Example 159, N-((1,2,3,5,6,7-Hexahydro-s-indacen-4-yl)carbamoyl)-1-methyl-5-(pyrrolidine-1-carbonyl)-1H-pyrazole-3-sulfonamide] |
| < 2.56 | O=C(Nc1c2c(cc3c1CCC3)CCC2)NS(=O)(=O)c1ccn(-c2ccccn2)n1 [Example 119, N-((1,2,3,5,6,7-Hexahydro-s-indacen-4-yl)carbamoyl)-1-(pyridin-2-yl)-1H-pyrazole-3-sulfonamide, sodium salt] |
| < 2.56 | CNC(=O)c1cc(S(=O)(=O)NC(=O)Nc2c3c(cc4c2CCC4)CCC3)nn1C [Example 166, 3-(N-((1,2,3,5,6,7-Hexahydro-s-indacen-4-yl)carbamoyl)sulfamoyl)-N,1-dimethyl-1H-pyrazole-5-carboxamide] |
| < 10 | Cn1nc(S(=O)(=O)NC(=O)Nc2c3c(cc4c2CCC4)CCC3)cc1C(=O)NCCO [Example 174, 3-(N-((1,2,3,5,6,7-Hexahydro-s-indacen-4-yl)carbamoyl)sulfamoyl)-N-(2-hydroxyethyl)-1-methyl-1H-pyrazole-5-carboxamide, partial ammonium salt] |
